Publication PMC7700651 (International Journal of Molecular Sciences, 2020)
Bridge positions count the residues as written; N and C are the ends. Peptide text beside a SMILES is read from it.

Experiments:
BTLA/HVEM complex [1] = biological target: T1, BTLA/HVEM complex (Homo sapiens, UniProt Q92956); assay: Cell-based reporter assay (HVEM-expressing Jurkat NFκB-eGFP reporter cells stimulated with TCS-BTLA); settings: 1.5 mg/mL; reporter cells pre-incubated 30 min with peptide, then TCS-BTLA 24 h; flow cytometry; three experiments in duplicate
T1 construct: expressed in transfected cells; host or cells: Jurkat JE6.1 NFκB-eGFP reporter cells (HVEM); T cell stimulator cells from mouse thymoma BW5147 (BTLA)
T1 sequence (Q92956 39-283): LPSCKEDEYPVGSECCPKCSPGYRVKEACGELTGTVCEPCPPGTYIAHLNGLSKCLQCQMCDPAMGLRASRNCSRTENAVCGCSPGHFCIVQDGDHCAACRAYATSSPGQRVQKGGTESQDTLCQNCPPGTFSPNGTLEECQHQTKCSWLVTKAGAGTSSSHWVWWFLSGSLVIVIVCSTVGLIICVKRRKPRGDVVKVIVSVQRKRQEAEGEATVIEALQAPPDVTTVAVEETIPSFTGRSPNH
Excerpt: To assess the capacities of the gD peptides to interfere with the BTLA/HVEM complex in a functional in vitro setting, reporter cells (NFκB-eGFP), which are based on the human Jurkat T cell line JE6.1 were transduced to express HVEM [34]. These reporter cells can be stimulated by T cell stimulator cells (TCS) expressing a membrane-bound anti-CD3 antibody fragment, which is able to engage the TCR-CD3 complex and thereby activate the NFκB pathway. In addition, to control TCS, TCS expressing the corresponding co-stimulatory ligand BTLA were generated in order to trigger HVEM in trans on the reporter cells (Figure S4). To validate the HVEM reporter system, control, and HVEM - expressing reporter cells were stimulated with control TCS and TCS expressing BTLA (Figure S4). Engagement of BTLA with HVEM induced high expression of NFκB-eGFP. To determine the inhibitory properties of the gD peptides, HVEM reporter cells were pre-incubated with the indicated peptides at different concentrations, followed by stimulation with control TCS or TCS-BTLA (Figure 4).
Figure 4 The inhibitory function of the peptides in a reporter cell-based assay. HVEM reporter cells were stimulated with TCS expressing BTLA in the absence or presence of the indicated gD peptides at concentrations of 1.5 mg/mL, 750 μg/mL, and 375 μg/mL. Reporter gene expression (NFκB-eGFP), upon stimulation with TCS-BTLA, was normalized to reporter activation after stimulation with TCS control in the presence of the respective peptides. BTLA/HVEM stimulation in the absence of peptides was set to 100% activation. Results are shown for three experiments performed independently in duplicate. Data are depicted as mean with SEM. * indicates statistically significant differences compared to full activation (100%), two-way ANOVA followed by Bonferroni’s post hoc test; p < 0.0001.
For functional assays, HVEM-expressing reporter cells (5 × 10^4 cells/well) were pre-incubated with different concentrations of gD peptides for 30 min in a 96 flat bottom plate. Control TCS or TCS expressing BTLA (2 × 10^4 cells/well) were subsequently added for 24 h at 37 °C with 5% CO2. After 24 h, the cells were harvested and stained with an mCD45.2 antibody to exclude TCS from the reporter cells. Expression of the reporter gene (eGFP) was then measured via flow cytometry. The mean and standard deviation of the gMFI of the viable population of reporter cells (mCD45.2+ stimulator cells were excluded) were determined. Each experiment was performed in duplicate.

BTLA/HVEM complex [2] = biological target: T2, BTLA/HVEM complex (Homo sapiens, UniProt Q92956); assay: ELISA, inhibition of BTLA/HVEM complex formation; type: biochemical; settings: peptides 1.5 to 0.375 mg/mL, 24 h, 37 °C; HVEM-His coated; BTLA-Fc 5 μg/mL
T2 construct: His; purchased ACROBiosystems (HVEM-His); Novoprotein (BTLA-Fc) #HVM-H52E9; #CD06
T2 sequence (Q92956 39-202 limits assumed): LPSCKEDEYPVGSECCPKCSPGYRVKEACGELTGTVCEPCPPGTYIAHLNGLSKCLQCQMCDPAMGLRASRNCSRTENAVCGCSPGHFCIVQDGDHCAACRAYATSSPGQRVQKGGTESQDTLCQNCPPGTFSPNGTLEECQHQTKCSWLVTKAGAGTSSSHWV
Protocol: ELISA tests were performed to check the inhibitory properties of the peptides. HVEM protein was first immobilized in microplates and then the peptides were added in three different concentrations and incubated with HVEM. Unbound peptides were then removed and BTLA-Fc protein was added. For the detection of BTLA-Fc protein, a goat anti-human IgG (H+L)-HRP conjugate and TMB (3,3’,5,5’-tetramethylbenzidine) were applied. As a positive control, anti-HVEM antibodies, which inhibit the BTLA/HVEM complex formation by about 50%, were used (Figure 3A and Figure S3). […] The inhibitory properties of the peptides were also studied for the complex HVEM/LIGHT, using the same procedure and conditions as described above, but with the application of LIGHT protein instead of BTLA protein. A significant increase in inhibitory properties was observed only for the anti-HVEM antibodies (positive control), which inhibited the HVEM/LIGHT binding by about 75% (Figure 3B and Figure S3). None of the tested peptides inhibited the formation of the LIGHT/HVEM complex (Figure 3B).
A 96-well Immunograde plate (Brand, Wertheim, Germany) was coated with 5 μg/mL of recombinant HVEM-His protein in PBS (100 μL/well) and incubated overnight at 4 °C. The plate was washed 5 times (200 μL/well) with PBS-T (5 mM Na2HPO4, 150 mM NaCl with the addition of 0.3 M NaCl and 0.05% Tween-20, pH 7.4) and blocked with 5% BSA in PBS-T for 2 h at 37 °C. The peptides were then titrated in triplicate from 1.5 to 0.375 mg/mL (100 µL/well) in PBS-T and incubated for 24 h at 37 °C. Maximum binding of HVEM to BTLA/LIGHT was determined by adding PBS-T to negative control wells, whereas maximum inhibition was measured by adding anti-HVEM (1 µg/well). The plate was then washed and incubated with recombinant BTLA-Fc/LIGHT-Fc protein at 5 μg/mL in PBS-T (100 μL/well) for 2 h at 37 °C. Goat anti-human IgG (H+L)-HRP conjugate (Bio-Rad, Hercules, CA, USA) antibody was then added (1:3000; 100 μL/well) and incubated for 1 h at 37 °C. Finally, BTLA-Fc/LIGHT-Fc was detected by the addition of 100 μL/well of TMB (Thermo Scientific, Waltham, MA, USA). Absorbance was measured using Infinite M200 Pro (Tecan Life Sciences, Männedorf, Switzerland) at 650 nm and 492 nm. […] ELISA tests were performed at least in triplicate. The data are presented as mean ± standard deviation (SD). The results were analyzed by one-way analysis of variance (ANOVA) followed by Dunnett’s post-hoc test using GraphPad Prism (San Diego, CA, USA).

HVEM protein = biological target: T3, HVEM protein (Homo sapiens, UniProt Q92956); assay: Affinity test: peptide on microcolumn with immobilized HVEM, fractions analysed by mass spectrometry; type: binding; settings: for Interaction with HVEM protein in affinity test: microcolumn with immobilized HVEM, presence in elution fraction by mass spectrometry
T3 construct: His; purchased ACROBiosystems #HVM-H52E9
Protocol: Affinity tests were performed to confirm the interaction of the designed peptides with HVEM protein. The peptide was added to a microcolumn with immobilized HVEM protein, and binding was checked using mass spectrometry, according to a procedure described earlier.
The affinity tests were performed according to the procedure described in our previous paper. The MS spectrums were registered using a MALDI-TOF/TOF autoflex maX (Bruker, Billerica, MA, USA) mass spectrometer.

[3] = Stability of peptides in cell culture medium (RPMI1640 with 10% FCS), RP-HPLC; type: in vitro ADME; settings: 37 °C, at least triplicate
Excerpt: A low stability in solution, which could be connected with many different processes such as aggregation, conformation changes, and chemical degradation, including deamidation and isomerization, oxidation, hydrolysis, and racemization, is a major concern for the therapeutic application of peptides. For the presented study, the stability of the peptides in PBS buffer and medium (solutions used in tests described above) was studied and determined using RP-HPLC. The analysis was done by comparing the area under the peaks in a control sample (peptide dissolved in water, time = 0) and a sample after incubation in PBS or medium.
200 µL of medium (RPMI1640 with 10% FCS)/human plasma was added to 50 µL of each peptide (1 mg/mL). The samples were incubated for different times (0, 2, 3, 6, and 24 h) at 37 °C. They were then precipitated by the addition 1 mL of absolute ethanol, incubated on ice for 15 min and centrifuged at 18,000 rpm for 20 min at 4 °C. The supernatants were collected and dried under vacuum. The samples were then resuspended in 120 µL of 0.1% TFA and analyzed by RP-HPLC under the same conditions as described for the determination of the stability of the peptides in PBS. All stability tests were performed at least in triplicate. Blood was obtained from donor volunteers and centrifuged in lithium/heparin tubes. EDTA was used as an anticoagulant.

[4] = biological target: T4, recombinant human HVEM with His tag (human, UniProt Q92956 39-202); assay: affinity purification with mass spectrometry; HVEM protein immobilised in a microcolumn; peptide added; supernatant, last wash and elution fractions analysed by MALDI-TOF/TOF MS; procedure of ref. 33; settings: both partners purified
T4 construct: also called HVEM-His; herpesvirus entry mediator; source: bought: ACROBiosystems (#HVM-H52E9)
T4 sequence (looked up): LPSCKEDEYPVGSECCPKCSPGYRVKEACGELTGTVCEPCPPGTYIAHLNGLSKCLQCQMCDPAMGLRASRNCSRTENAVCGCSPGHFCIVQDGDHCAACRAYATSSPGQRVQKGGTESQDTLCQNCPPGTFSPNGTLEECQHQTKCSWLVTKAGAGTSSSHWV

Molecule	Capacity to interfere with BTLA/HVEM complex (reduction of NFκB-eGFP activation), in words (BTLA/HVEM complex [1])	Inhibitory properties for BTLA/HVEM complex formation (ELISA), in words (BTLA/HVEM complex [2])	Elution [M+H]+ (signal in elution fraction = binding to immobilized HVEM) (HVEM protein; MALDI-TOF MS of elution fraction, binding confirmed if m/z signal present in elution and none in last wash, '-' = no signal)	Interaction with HVEM protein in affinity test (HVEM protein)	metabolised at 24 h, 0.2 mg/mL ([3]; cell culture medium (RPMI1640 with 10% FCS), 200 µL + 50 µL peptide 1 mg/mL, 24 h, ethanol precipitation, read-out: Degradation in medium after 24 h)	Stability in medium (and PBS), in words ([3]; up to 24 h)	binding result [4]
CSCC[C@@H]1NC(=O)[C@H](CC(=O)O)NC(=O)[C@H](CC(C)C)NC(=O)[C@H](CC(C)C)NC(=O)[C@H](CC(=O)O)NC(=O)[C@H](C(C)C)NC(=O)[C@H](C)NC(=O)[C@H](C(C)C)NC(=O)CNC(=O)[C@H](CC(=O)O)NC(=O)[C@@H](NC(=O)CNC(=O)[C@H](CCCCN)NC(=O)[C@H](CO)NC(=O)[C@H](C)NC(=O)[C@H](CCCNC(=N)N)NC(=O)[C@H](CC(C)C)NC(=O)[C@@H]2CCCN2C(=O)[C@H](CCCNC(=N)N)NC(=O)[C@H](CC(=O)O)NC(C)=O)CSSC[C@@H](C(=O)N[C@@H](CC(C)C)C(=O)N[C@H](C(=O)N[C@@H](CC(C)C)C(=O)N[C@@H](CC(=O)O)C(=O)N[C@@H](Cc2ccccc2)C(=O)N[C@@H](C)C(=O)N[C@@H](CCCNC(=N)N)C(N)=O)C(C)C)NC(=O)[C@@H]2CCCN2C(=O)[C@H](CC(N)=O)NC(=O)[C@H](CCCCN)NC(=O)[C@H](CCC(N)=O)NC(=O)[C@H](CCCNC(=N)N)NC(=O)[C@@H]2CCCN2C(=O)[C@H](Cc2ccc(O)cc2)NC(=O)[C@@H]2CCCN2C1=O [gD(1-36)(K10C-T29C)^SCR, reference compound] (Ac-DRPLRASKGCDGVAVDLLDMPYPRQKNPCLVLDFAR-NH2; disulfide 10-29)	weak blocking effect	no effect	–	–	–	–	–
CSCC[C@H](NC(=O)[C@H](CCCCN)NC(=O)[C@H](CC(C)C)NC(=O)[C@H](CO)NC(=O)[C@H](C)NC(=O)[C@H](CC(=O)O)NC(=O)[C@@H](NC(=O)[C@H](CC(C)C)NC(=O)[C@H](C)NC(=O)[C@H](Cc1ccc(O)cc1)NC(=O)[C@H](CCCCN)NC(C)=O)C(C)C)C(=O)N[C@@H](C)C(=O)N[C@@H](CC(=O)O)C(=O)N1CCC[C@H]1C(=O)N[C@@H](CC(N)=O)C(=O)N[C@@H](CCCNC(=N)N)C(=O)N[C@@H](Cc1ccccc1)C(=O)N[C@@H](CCCNC(=N)N)C(=O)NCC(=O)N[C@@H](CCCCN)C(=O)N[C@@H](CC(=O)O)C(=O)N[C@@H](CC(C)C)C(=O)N1CCC[C@H]1C(=O)N[C@H](C(=O)N[C@@H](CC(C)C)C(=O)N[C@@H](CC(=O)O)C(=O)N[C@@H](CCC(N)=O)C(=O)N[C@@H](CC(C)C)C(=O)N[C@H](C(=O)N[C@@H](CC(=O)O)C(=O)N1CCC[C@H]1C(=O)N1CCC[C@H]1C(=O)NCC(=O)N[C@H](C(=O)N[C@@H](CCCNC(=N)N)C(=O)N[C@@H](CCCNC(=N)N)C(N)=O)C(C)C)[C@@H](C)O)C(C)C [gD(1-36)]	weak blocking effect	did not prevent protein interaction	4094.88	binds to HVEM	~50%	–	–
Ac-ASLKMADPN-NH2 [gD(7-15)]	no effect	do not inhibit BTLA/HVEM complex formation	–	do not interact with HVEM protein	–	almost completely degraded	–
Ac-DQLTDPP-NH2 [gD(26-32)]	weak blocking effect	do not inhibit BTLA/HVEM complex formation	–	do not interact with HVEM protein	–	–	–
Ac-KYALVDASLKMADPNRFRGKDLPVLDQLTDPPGVRR-NH2 (source: synthetic peptide) [gD(1-36)]	–	–	–	–	–	–	binds
